Measured values reported in PubChem BioAssay AID1259408 (Genetic Toxicology Data Bank (GENE-TOX), 2018).
The source made the active and inactive calls. The rule behind the calls is not given here.

System: GENE-TOX genotoxicity assays, various organisms and cells
Assay: GENE-TOX mutagenicity studies
Details: for call: Assay Type: In vivo carcinogenicity studies, Assay Code: CCG+
[1] = Species/Cell Type: Salmonella typhimurium (one or more of the five standard strains: TA98, TA100, TA1535, TA1537, and TA1538), Assay Type: Histidine reverse gene mutation, Ames assay, Assay Code: SAL+, Evaluation Type: Evaluation A (Pre-1980)
[2] = Species/Cell Type: Drosophila melanogaster, Assay Type: Sex-linked recessive lethal gene mutation, Assay Code: SRL+, Evaluation Type: Evaluation A (Pre-1980)
[3] = Species/Cell Type: Nonhuman, Evaluation Type: Evaluation A (Pre-1980)
[4] = Species/Cell Type: Salmonella typhimurium, Assay Type: Forward and reverse gene mutation, host-mediated assay, Assay Code: HMA+, Evaluation Type: Evaluation A (Pre-1980)
[5] = Species/Cell Type: Salmonella typhimurium (one or more of the five standard strains: TA98, TA100, TA1535, TA1537, and TA1538), Assay Type: Histidine reverse gene mutation, Ames assay, Assay Code: SALT, Evaluation Type: Evaluation A (Pre-1980)
[6] = Species/Cell Type: Saccharomyces cerevisiae, Assay Type: Mitotic recombination or gene conversion, Assay Code: YEH-, Evaluation Type: Evaluation A (Pre-1980)
[7] = Species/Cell Type: Drosophila melanogaster, Assay Type: Sex-linked recessive lethal gene mutation, Assay Code: SRLT, Evaluation Type: Evaluation A (Pre-1980)
[8] = Species/Cell Type: Bacillus subtilis (H17 vs M45), Assay Type: Rec-assay, spot test, DNA effects (bacterial DNA repair), Assay Code: REW+, Evaluation Type: Evaluation A (Pre-1980)
[9] = Species/Cell Type: Mammalian polychromatic erythrocytes, Assay Type: Micronucleus test, chromosome aberrations, Assay Code: MNT+, Evaluation Type: Evaluation B (Post-1980)

SMILES: O=[N+]([O-])c1cccc2cc[nH]c12
- mutagenic call [1]: active; positive

SMILES: CN=[N+](C)[O-]
- mutagenic call [2]: active; positive
- mutagenic call (Species/Cell Type: Mouse (BALB/c-3T3) cells, Assay Type: Cell transformation, Assay Code: CTB-, Evaluation Type: Evaluation A (Pre-1980)): inactive; negative
- call [3]: active; positive
- mutagenic call (Species/Cell Type: Salmonella typhimurium (one or more of the five standard strains: TA98, TA100, TA1535, TA1537, and TA1538), Assay Type: Histidine reverse gene mutation, Ames assay, Assay Code: SAL+*, Activation: With metabolic activation, Evaluation Type: Evaluation A (Pre-1980)): active; positive
- mutagenic call [4]: active; positive

SMILES: COc1cc2c[n+](C)c3c4cc5c(cc4ccc3c2cc1OC)OCO5
- mutagenic call [5]: no conclusion

SMILES: c1ccc2c(c1)-c1cccc3c1c-2cc1ccccc13
- call [3]: active; positive
- mutagenic call (Species/Cell Type: Nonhuman, Assay Type: Sister-chromatid exchange (SCE) in vivo, Assay Code: SC3+, Evaluation Type: Evaluation B (Post-1980)): active; positive
- mutagenic call (Species/Cell Type: Nonhuman, Assay Type: Sister-chromatid exchange (SCE) in vivo, Assay Code: SC3T, Evaluation Type: Evaluation A (Pre-1980)): no conclusion

SMILES: O=C(O)C1(O)C[C@@H](O)C(O)[C@H](O)C1 (some centres undefined)
- mutagenic call (Species/Cell Type: Salmonella typhimurium (one or more of the five standard strains: TA98, TA100, TA1535, TA1537, and TA1538), Assay Type: Histidine reverse gene mutation, Ames assay, Assay Code: SAL-, Evaluation Type: Evaluation A (Pre-1980)): inactive; negative

SMILES: Nc1ccc(Oc2ccc(N)cc2)cc1
- call [3]: active; positive
- mutagenic call (Species/Cell Type: Nonhuman, Assay Type: Sister-chromatid exchange (SCE) in vivo, Assay Code: SC3T, Evaluation Type: Evaluation B (Post-1980)): no conclusion

SMILES: O=S(=O)(O)CCS
- mutagenic call (Species/Cell Type: Human lymphocytes, Assay Type: Sister-chromatid exchange (SCE) in vitro, Assay Code: SCLT, Evaluation Type: Evaluation B (Post-1980)): no conclusion
- mutagenic call (Species/Cell Type: Human, Assay Type: Sister-chromatid exchange (SCE) in vitro, Assay Code: SC1T, Evaluation Type: Evaluation B (Post-1980)): no conclusion

SMILES: NC[C@H]1O[C@H](O[C@H]2[C@H](O)[C@@H](O[C@H]3O[C@H](CO)[C@@H](O)[C@H](N)[C@H]3O)[C@H](N)C[C@@H]2N)[C@H](N)[C@@H](O)[C@@H]1O
- mutagenic call [6]: inactive; negative

SMILES: Clc1cc(Cl)c(OCC#CI)cc1Cl
- mutagenic call (Species/Cell Type: Neurospora crassa, Assay Type: Aneuploidy, chromosome aberrations, Assay Code: NEN-, Evaluation Type: Evaluation A (Pre-1980)): inactive; negative

SMILES: CC(=O)Nc1ccc(CCc2ccccc2)cc1
- mutagenic call [5]: no conclusion

SMILES: COc1ccc([C@@H]2CC(=O)c3c(O)cc(O[C@@H]4O[C@H](CO)[C@@H](O)[C@H](O)[C@H]4O[C@@H]4O[C@@H](C)[C@H](O)[C@@H](O)[C@H]4O)cc3O2)cc1O
- mutagenic call (Species/Cell Type: Salmonella typhimurium, Assay Type: Forward and reverse gene mutation, body fluid assay, Assay Code: BFU-, Evaluation Type: Evaluation A (Pre-1980)): inactive; negative

SMILES: CN=NNc1c(Cl)cc(Cl)cc1Cl
- mutagenic call [7]: no conclusion

SMILES: CC(=O)c1c(=O)cc(C)oc1=O
- mutagenic call (Species/Cell Type: Nonhuman, Assay Type: Sister-chromatid exchange (SCE) in vitro, Assay Code: SC2-, Evaluation Type: Evaluation A (Pre-1980)): inactive; negative
- mutagenic call (Species/Cell Type: Nonhuman, Assay Type: Sister-chromatid exchange (SCE) in vitro, Assay Code: SC2T, Evaluation Type: Evaluation B (Post-1980)): no conclusion

SMILES: CN(C)c1ccc(C(=C2C=CC(=[N+](C)C)C=C2)c2ccc(N(C)C)cc2)cc1
- mutagenic call [8]: active; positive
- mutagenic call (Species/Cell Type: Bacillus subtilis (H17 vs M45T), Assay Type: Rec-assay, spot test, DNA effects (bacterial DNA repair), Assay Code: REXT, Evaluation Type: Evaluation A (Pre-1980)): no conclusion
- mutagenic call [7]: no conclusion
- mutagenic call [6]: inactive; negative
- mutagenic call [5]: no conclusion

SMILES: C[As]=S (centres undefined)
- mutagenic call [8]: active; positive

SMILES: CCCCBr
- mutagenic call (Species/Cell Type: Escherichia coli polA (W3119 vs P3478), Assay Type: Rec-assay, DNA effects (bacterial DNA repair), Assay Code: RE1T, Evaluation Type: Evaluation A (Pre-1980)): no conclusion

SMILES: CCN(N=O)C(N)=O
- mutagenic call (Species/Cell Type: Arabidopsis species, Assay Type: Gene mutation, Assay Code: ARM+D, Dose Response: With dose response, Evaluation Type: Evaluation A (Pre-1980)): active; positive
- mutagenic call (Species/Cell Type: Chinese hamster ovary (CHO) cells, Assay Type: Forward gene mutation at the HPRT locus, Assay Code: CHO+D, Dose Response: With dose response, Evaluation Type: Evaluation A (Pre-1980)): active; positive
- mutagenic call (Species/Cell Type: Drosophila melanogaster, Assay Type: Aneuploidy, partial sex chromosome loss, chromosome aberrations, Assay Code: DAP+M, Evaluation Type: Evaluation A (Pre-1980)): active; positive
- mutagenic call (Species/Cell Type: Drosophila melanogaster, Assay Type: Aneuploidy, whole sex chromosome loss, chromosome aberrations, Assay Code: DAC+M, Evaluation Type: Evaluation A (Pre-1980)): active; positive
- mutagenic call [2]: active; positive
- mutagenic call (Species/Cell Type: Drosophila melanogaster, Sex: Male, Assay Type: Heritable translocation test, chromosome aberrations, Assay Code: DHTT, Evaluation Type: Evaluation A (Pre-1980)): no conclusion
- mutagenic call (Species/Cell Type: Escherichia coli polA (W3119 vs P3478), Assay Type: Rec-assay, DNA effects (bacterial DNA repair), Assay Code: RE1+, Evaluation Type: Evaluation A (Pre-1980)): active; positive
- mutagenic call (Species/Cell Type: Fischer rat embryo (RLV/1706) cells, Assay Type: Cell transformation, viral enhanced, Assay Code: CTR+, Evaluation Type: Evaluation A (Pre-1980)): active; positive
- mutagenic call (Species/Cell Type: Hordeum vulgare (barley), Assay Type: Chromosome aberrations, Assay Code: HOC+, Evaluation Type: Evaluation A (Pre-1980)): active; positive
- mutagenic call (Species/Cell Type: Hordeum vulgare (barley), Assay Type: Gene mutation, Assay Code: HOM+, Evaluation Type: Evaluation A (Pre-1980)): active; positive
- mutagenic call (Species/Cell Type: Human diploid fibroblasts, Assay Type: Unscheduled DNA synthesis (UDS) in vitro, DNA effects, Assay Code: UDH+, Evaluation Type: Evaluation A (Pre-1980)): active; positive
- mutagenic call (Species/Cell Type: Human lymphocytes or leukocytes, Assay Type: Chromosome aberrations in vitro, Assay Code: CY7+D, Dose Response: With dose response, Evaluation Type: Evaluation A (Pre-1980)): active; positive
- mutagenic call (Species/Cell Type: Human, Assay Type: Sister-chromatid exchange (SCE) in vitro, Assay Code: SC1+, Evaluation Type: Evaluation A (Pre-1980)): active; positive
- mutagenic call [9]: active; positive
- mutagenic call (Species/Cell Type: Mouse germ cells, Sex: Male, Assay Type: Unscheduled DNA synthesis (UDS) in vivo, DNA effects, Assay Code: UDT+, Evaluation Type: Evaluation A (Pre-1980)): active; positive
- mutagenic call (Species/Cell Type: Mouse, Sex: Female, Assay Type: Spot test, gene mutation, Assay Code: MST+, Evaluation Type: Evaluation A (Pre-1980)): active; positive
- mutagenic call (Species/Cell Type: Mouse, Sex: Male, Assay Type: Specific locus test, gene mutation, Assay Code: SLT+, Evaluation Type: Evaluation A (Pre-1980)): active; positive
- mutagenic call (Species/Cell Type: Neurospora crassa, Assay Type: Forward gene mutation, Assay Code: NEF+, Evaluation Type: Evaluation A (Pre-1980)): active; positive
- mutagenic call (Species/Cell Type: Nonhuman bone marrow, Assay Type: Chromosome aberrations, in vivo, Assay Code: CY#+, Evaluation Type: Evaluation A (Pre-1980)): active; positive
- call [3]: active; positive
- mutagenic call (Species/Cell Type: Nonhuman, Assay Type: Sister-chromatid exchange (SCE) in vitro, Assay Code: SC2+D, Dose Response: With dose response, Evaluation Type: Evaluation A (Pre-1980)): active; positive
- mutagenic call (Species/Cell Type: Nonhuman, Assay Type: Sister-chromatid exchange (SCE) in vivo, Assay Code: SC3+D, Dose Response: With dose response, Evaluation Type: Evaluation B (Post-1980)): active; positive
- mutagenic call (Species/Cell Type: Saccharomyces cerevisiae, Assay Type: Mitotic recombination or gene conversion, Assay Code: YEC+, Evaluation Type: Evaluation A (Pre-1980)): active; positive
- mutagenic call (Species/Cell Type: Saccharomyces cerevisiae, Assay Type: Mitotic recombination or gene conversion, Assay Code: YEH+, Evaluation Type: Evaluation A (Pre-1980)): active; positive
- mutagenic call [1]: active; positive
- mutagenic call [4]: active; positive
- mutagenic call (Species/Cell Type: Syrian hamster embryo (SHE) cells, Assay Type: Cell transformation, clonal assay, Assay Code: CTCT, Evaluation Type: Evaluation A (Pre-1980)): no conclusion
- mutagenic call (Species/Cell Type: Vicia faba, Assay Type: Chromosome aberrations, Assay Code: VIC+, Evaluation Type: Evaluation A (Pre-1980)): active; positive
- mutagenic call (Species/Cell Type: Zea mays (corn), Assay Type: Gene mutation, Assay Code: ZEM+D, Dose Response: With dose response, Evaluation Type: Evaluation A (Pre-1980)): active; positive

SMILES: C=C(C)[C@@H]1CCC(C)=C[C@H]1c1c(O)cc(CCCCC)cc1O
- mutagenic call (Species/Cell Type: Fischer rat embryo (RLV/1706) cells, Assay Type: Cell transformation, viral enhanced, Assay Code: CTR-, Evaluation Type: Evaluation A (Pre-1980)): inactive; negative
- mutagenic call (Species/Cell Type: Human lymphocytes, Assay Type: Sister-chromatid exchange (SCE) in vivo, Assay Code: SCY+, Evaluation Type: Evaluation B (Post-1980)): active; positive
- mutagenic call [9]: active; positive
- mutagenic call (Species/Cell Type: Mouse, Sex: Male, Assay Type: Sperm morphology, Assay Code: SPI-, Evaluation Type: Evaluation A (Pre-1980)): inactive; negative

SMILES: CC(=O)O[C@@H]1[C@@H](O)[C@H]2O[C@@H]3C=C(C)C(=O)[C@@H](O)[C@]3(CO)[C@]1(C)[C@]21CO1
- mutagenic call (Species/Cell Type: Bacillus subtilis (H17 vs M45), Assay Type: Rec-assay, spot test, DNA effects (bacterial DNA repair), Assay Code: REW-, Evaluation Type: Evaluation A (Pre-1980)): inactive; negative
- mutagenic call [5]: no conclusion
